According to PMC3781034, “A Small-Animal Pharmacokinetic/Pharmacodynamic PET Study of Central Serotonin 1A Receptor Occupancy by a Potential Therapeutic Agent for Overactive Bladder” (PLoS ONE, 2013):
Like-named read-outs stand apart in the source and are kept apart here.

Tests used:
rat 5-HT1A receptor = target: T1, rat 5-HT1A receptor (Rattus norvegicus, UniProt P19327); assay: Binding assay in rat hippocampal membrane fraction ([3H]MPPF); conditions: rat hippocampal membranes, 0.3 nM [3H]MPPF, 25°C 60 min; read-out: Ki, 5-HT1A receptor affinity
T1 construct: from tissue; host or cells: rat hippocampus, membrane (microsomal) fraction
T1 sequence (P19327 1-422): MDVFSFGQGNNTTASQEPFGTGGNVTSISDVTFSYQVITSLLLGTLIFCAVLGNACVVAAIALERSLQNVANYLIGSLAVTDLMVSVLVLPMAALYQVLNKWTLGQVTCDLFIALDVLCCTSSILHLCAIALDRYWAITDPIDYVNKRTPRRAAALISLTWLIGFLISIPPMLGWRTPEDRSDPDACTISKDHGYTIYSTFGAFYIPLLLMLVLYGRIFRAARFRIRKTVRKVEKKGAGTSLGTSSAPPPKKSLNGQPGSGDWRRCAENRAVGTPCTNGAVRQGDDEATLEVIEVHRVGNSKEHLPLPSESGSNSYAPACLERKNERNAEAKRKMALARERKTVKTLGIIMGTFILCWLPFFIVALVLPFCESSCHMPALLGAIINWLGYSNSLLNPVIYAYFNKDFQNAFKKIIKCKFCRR
Protocol: Rat hippocampal samples were weighed, homogenized in 10-fold volume of 50 mM Tris-HCl (pH 7.4) on an ice bath, and centrifuged (50,000×g, 4°C, 20 min). The precipitate was further homogenized in a 10-fold volume of 50 mM Tris-HCl (pH 7.4) on an ice bath and centrifuged (50,000×g, 4°C, 20 min). The obtained precipitate was homogenized in 50 mM Tris-HCl (pH 7.4) to render a concentration of 100 mg tissue eq./mL. The obtained microsomal fraction was stored as a receptor stock solution at -80°C until use. […] MPPF in a total 1-ml reaction volume at 25°C for 60 min. The reaction was terminated, and bound radioactivity was separated from free radioligands by filtering and washing three times with 3 ml of 50 mM Tris-HCl (pH 7.4). The radioactivity content of the filters in 5 ml of liquid scintillator (Atomlight; PerkinElmer) was counted by TR2500 scintillation counter (PerkinElmer Life & Analytical Sciences). The specific binding was determined as the difference between total and nonspecific binding, measured in the absence and presence of 100 µM 5-HT. Data were analyzed by Scatchard plot to estimate equilibrium constant (Kd) values. For the competition experiments, binding assays were carried out using 0.3 nM [^3H] […] MPPF according to the following equation:
Ki=IC50/1+[radioligand]/Kd (1)
where [radioligand] means the concentration of the radioligand used.

5-HT1A receptors [1] = target: T2, 5-HT1A receptors (Rattus norvegicus, UniProt P19327); assay: PET 5-HT1A receptor occupancy, time-course study (effect compartment model); format: in vivo, Sprague-Dawley rat; conditions: for EC50: time-course study
T2 construct: occupancy of 5-HT1A receptors in living Sprague-Dawley rat brains; from tissue; host or cells: living Sprague-Dawley rat brain (medial prefrontal cortex, dorsal raphe nucleus), in vivo PET
T2 sequence (P19327 1-422): T1 sequence (P19327 1-422)
Protocol: All PET scans for rats were performed with a small animal-dedicated microPET FOCUS 220 system (Siemens Medical Solutions USA, Knoxville, TN, USA), which yields a 25.8 cm (transaxial) × 7.6 cm (axial) field of view (FOV) and a spatial resolution of 1.3 mm full width at half maximum at the center of FOV [8]. The rats were anesthetized with 1.5-2% isoflurane in air (2 L/min flow rate). Their body temperature was controlled using homeothermic controller and plate with a rectal probe, and their heart rates and arterial oxygen saturations were continuously measured by a pulse oximeter (CANL-425SVA; Med Associates, St. Albans, VT, USA). We also monitored respiration rates of these animals with a custom-made monitoring system (Nagano Electronics, Hitachinaka, Japan). A 20-min transmission scan for attenuation correction was performed using a spiraling ^68Ge-^68Ga point source. Subsequently, list-mode scans were carried out for 90 min. All list-mode data were sorted and Fourier rebinned into two-dimensional sinograms (frames: 4 × 1, 8 × 2, and 14 × 5 min). Images were thereafter reconstructed using two-dimensional filtered back-projection with a 0.5-mm Hanning filter. [^11C]-WAY-100635 was injected via the tail vein as a single bolus at the start of emission scanning. The injected dose of the radiotracer was 85.3 ± 28.6 MBq/rat (mean ± SD).
Anatomical regions of interest (ROIs) were placed on the medial prefrontal cortex (MPFC) and dorsal raphe nucleus (DRN) using PMOD® image software (PMOD Group, Zurich, Switzerland) with reference to the MRI template. Radioligand binding was examined by calculating the binding potential (BP ND; ratio at equilibrium of specifically-bound radioligand to that of nondisplaceable radioligand in tissue) based on a simplified reference tissue model (SRTM) using the cerebellar time-radioactivity curve as reference.
Occupancy of 5-HT1A receptors by E2110 was calculated using the following equation:
RO(%)=BPND,baseline−BPND,drug/BPND,baseline×100 (2)
where BP ND, baseline and BP ND, drug are estimated BP ND at baseline and following drug administration, respectively.
To examine the dose-RO relationship at a single time point, four male SD rats, which had undergone a baseline PET imaging in advance, were scanned with PET at 4 hours after being pretreated with 4 oral doses (0.3, 1, 3, 10 mg/kg) of E2110. In this assay, approximately 250 µL of blood samples were collected from the tail vein upon initiation of the scan for quantification of plasma concentration of E2110. We further examined RO at different time points after the drug administration by conducting PET scans of four male SD rats at 2, 4, 6 or 8 hours after pretreatment with a single oral dose of 1 mg/kg E2110. In addition to this series of PET assays for male rats, pilot PET scans for female rats (n = 3) were carried out at baseline and 4 hours after oral administration of 0.1 mg/kg E2110 to examine whether relationships between plasma concentration of E2110 and RO by this drug in the brain are consistent between two genders. In all experiments, scans for the same individual receiving E2110 were conducted more than 1 week apart.
(§1) The effect compartment model is illustrated in Figure 2. The mean plasma concentration profile of E2110 in each of four rats was fitted by two-compartment model with first order absorption and elimination. A sigmoid Emax model (Equation 4) based on the concentration in the effect compartment was fitted to the PD (RO) data. PK and PD models were linked using an effect compartment model described by the following equation: […]
(§2) where Cp and Ce are concentrations of E2110 in the plasma and effect compartments, respectively, and ke0 represents the equilibration rate constant for the effect compartment. PK and PD parameters were estimated by using […] (Version 2.01, MicroMath Research, UT, USA).

micturition interval = assay: 5-HT1A receptor agonist (8-OH-DPAT)-induced model of OAB, cystometry; format: in vivo, female SD rats
Protocol: Catheter implantations and cystometric investigations were performed based on the reported method [14]. Briefly, on the day before the cystometric experiment, female SD rats were initially anesthetized with pentobarbital (50 mg/kg ip). Catheters were inserted into the femoral vein, the dome of the stomach and the dome of the bladder. In the cystometric study, the bladder catheter was connected to an infusion pump and a pressure transducer (DX-312; Nihon Kohden Co., Tokyo, Japan) by three-way stopcock. Saline was infused into the bladder and femoral vein. After bladder pressure was stabilized, 8-OH-DPAT (0.06 mg/kg/h) was infused into the femoral vein instead of saline. Bladder pressure was monitored with a pressure transducer and a pressure amplifier (AP-601G; Nihon Kohden), and recorded on a pen recorder (WT-645G; Nihon Kohden). The following three micturition intervals (i.e., intervals between consecutive peaks of bladder pressure induced at the time of bladder content evacuation) were obtained: (1) basal micturition interval (intervals before 8-OH-DPAT administration), (2) pre-administration micturition interval, (intervals immediately before administration of E2110 or vehicle), and (3) post-administration micturition interval (intervals observed between 1 and 2 hr after administration of E2110 or vehicle). […] E2110 (0.03, 0.1 or 0.3 mg/kg) or vehicle was administered to four groups of eight conscious rats orally.
Data are expressed as mean ± standard error of mean (S.E.M). In the pharmacological study, the statistical significance of differences between the vehicle- and E2110-treated groups was tested using one-way analysis of variance (ANOVA) followed by Dunnett’s multiple comparison test. A probability (p) value of <0.05 (two-sided) was considered statistically significant. All statistical analyses were performed using the SAS software package version 8.1 or 8.2 (SAS Institute Japan Ltd., Tokyo, Japan).

P-glycoprotein = assay: Brain-to-plasma ratio in Mdr1a/1b-knockout vs wild-type mice; format: in vivo; conditions: rodents, BBB drug transporter; data not shown
CYP3A4 = target: T3, CYP3A4 (Homo sapiens, UniProt P08684); assay: Metabolism in human liver microsomes; format: in vitro ADME; conditions: unpublished results
T3 construct: from tissue; host or cells: human liver microsomes
T3 sequence (P08684 whole entry): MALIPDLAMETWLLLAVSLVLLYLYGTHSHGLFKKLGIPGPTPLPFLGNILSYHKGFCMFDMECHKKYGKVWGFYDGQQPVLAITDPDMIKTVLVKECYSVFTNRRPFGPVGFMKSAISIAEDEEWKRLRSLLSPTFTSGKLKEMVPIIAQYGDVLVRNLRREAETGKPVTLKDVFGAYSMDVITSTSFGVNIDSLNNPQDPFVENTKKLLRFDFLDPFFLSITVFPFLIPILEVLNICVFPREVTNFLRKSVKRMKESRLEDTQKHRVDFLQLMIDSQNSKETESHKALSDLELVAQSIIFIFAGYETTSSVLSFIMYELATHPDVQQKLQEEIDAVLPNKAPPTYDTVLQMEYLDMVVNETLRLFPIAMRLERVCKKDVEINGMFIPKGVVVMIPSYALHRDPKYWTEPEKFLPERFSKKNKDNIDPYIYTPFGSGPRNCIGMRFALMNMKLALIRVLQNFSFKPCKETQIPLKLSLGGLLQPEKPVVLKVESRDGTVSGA

5-HT1A receptors [2] = assay: Effect compartment model simulation of 5-HT1A RO in female rats; set-up: species or system female SD rats; conditions: for simulated 5-HT1A RO: DRN
Source text: as §1, §2

Compound: CNC(=O)c1ccc2ccn(C3CCN(CCc4c(OC)ccc5c4OC(C)(C)CC5=O)CC3)c2c1.O=C(O)/C=C/C(=O)O [E2110, 1-{1-[2-(7-Methoxy-2,2-dimethyl-4-oxochroman-8-yl)ethyl]piperidine-4-yl}-N-methyl-1H-indole-6-carboxamide fumarate]
- Ki (rat 5-HT1A receptor): 0.045 nM
- EC50 (5-HT1A receptors [1]; DRN, 1 mg/kg oral, male SD rats, effect compartment model, read-out: EC50 for occupancy of 5-HT1A receptors (converted)): 7.38 nM
- EC50 (5-HT1A receptors [1]; DRN, effect compartment model, read-out: EC50 for occupancy of 5-HT1A receptors (converted)): 5.94 nM
- EC50 (5-HT1A receptors [1]; DRN, read-out: EC50 for 5-HT1A RO, value in parentheses (free concentration-based)): 0.44 nM
- EC50 (5-HT1A receptors [1]; MPFC, 1 mg/kg oral, male SD rats, effect compartment model, read-out: EC50 for occupancy of 5-HT1A receptors (converted)): 5.85 nM
- EC50 (5-HT1A receptors [1]; MPFC, effect compartment model, read-out: EC50 for occupancy of 5-HT1A receptors (converted)): 4.74 nM
- EC50 (5-HT1A receptors [1]; MPFC, read-out: EC50 for 5-HT1A RO, value in parentheses (free concentration-based)): 0.35 nM
- half-life (5-HT1A receptors [1]; Sprague-Dawley, rat, effect compartment model, 1 mg/kg oral, male SD rats, read-out: CNS equilibration t1/2 (from ke0) (converted)): 1.4 h
- 5-HT1A RO measured by PET versus simulated RO (5-HT1A receptors [1]; female rats, 4 hours after oral 0.1 mg/kg, pilot study n = 3): in good agreement with calculated data
- minimum dose exerting overt therapeutic effects on the micturition reflex (micturition interval; 8-OH-DPAT model, oral): 0.1 mg/kg
- effect on micturition interval (micturition interval; oral 0.1-0.3 mg/kg, 8-OH-DPAT-infused female SD rats, 1-2 hr after administration): significantly (p < 0.05) prolonged the micturition intervals
- P-glycoprotein substrate status (P-glycoprotein): substrate for the BBB drug transporter P-glycoprotein
- metabolizing enzyme (CYP3A4): primarily metabolized by CYP3A4
- simulated RO at minimum effective doses during micturition monitoring period (5-HT1A receptors [2]; 0.1 mg/kg (8-OH-DPAT model, 1-2 hours postdose) and 0.3 mg/kg (SCL model, 0.5-1 hour postdose)): around 60%
- simulated 5-HT1A RO (5-HT1A receptors [2]; 0.1 mg/kg oral, 1-2 hours after dosing, 8-OH-DPAT treatment): 60-70%
- simulated 5-HT1A RO (5-HT1A receptors [2]; 0.3 mg/kg oral, 0.5-1 hour after dosing, SCL model): 60-80%
- 5-HT1A RO required for significant effects on micturition (5-HT1A receptors [2]; inferred from simulated RO and pharmacological tests): ≥ 60%
